In the supplement of paper PMC5770543:
± gives the standard deviation.

Assays:
[1] = system: Plasmodium falciparum 3D7; test: EC50 growth inhibition (60 h, SYBR Green); details: stage: ring-stage start
[2] = system: Plasmodium falciparum 3D7; test: % inhibition of schizont-to-ring transition vs DMSO; higher = more inhibition
How it was run: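 Tightly synchronised P. falciparum schizonts (about 40–42 hours post-invasion, 1% parasitemia, 2.5% hematocrit, AlbuMAX-supplemented RPMI) were exposed to compound at 1, 3 or 10 µM, with vehicle and positive controls. Cells were glutaraldehyde-fixed, Triton-permeabilised, stained with Hoechst 33342 and counted by flow cytometry (at least 100,000 events). Schizont-to-ring transition inhibition is new ring formation relative to vehicle controls, averaged over three experiments.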

[3] = system: Toxoplasma gondii RH tachyzoites; test: % growth inhibition vs DMSO (48 h luciferase); higher = more inhibition; details: 10 µM
[4] = system: Toxoplasma gondii RH tachyzoites; test: plaque count per well; higher = less inhibition; extreme values may be limits of the assay; details: 10 µM; 8-10 days
Experimental: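 T. gondii RH tachyzoites expressing firefly luciferase were grown in HFF monolayers for 48 h with compound. % growth inhibition at 10 µM and EC50 (2-fold dilutions from 10 µM) were read by luminescence relative to 1% DMSO; EC50 listed as 10 (not determined, <80% inhibition) is left out. Plaque assays: 50 tachyzoites per well with 10 µM compound for 8-10 days, giving plaque count and area by crystal violet/ImageJ. Egress: median time to egress after 1 µM A23187 ionophore following 24 h of 10 µM compound (DMSO ~1.8 min; >10 = no egress within 10 min).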
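Wherever % growth inhibition vs DMSO (48 h luciferase) is given: tested in triplicate wells of 96-well plates on confluent HFF monolayers, with 1% DMSO wells as negative control in four replicates.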

| Compound | EC50 growth inhibition [1] [nM] | % inhibition of schizont-to-ring transition ([2]; 1 µM) [%] | % inhibition of schizont-to-ring transition ([2]; 3 µM) [%] | % inhibition of schizont-to-ring transition ([2]; 10 µM) [%] | % growth inhibition [3] [%] | plaque count per well [4] |
| --- | --- | --- | --- | --- | --- | --- |
| CCOC(=O)C1(Cc2ccccc2)CCN(Cc2cccc(OC)c2O)CC1 | 1330 | 25.8 | 34 | 55.9 | 1.84 ± 3.2 | 0 |
| O=C(Nc1ccc(Cl)cc1)N1CCN(c2ccc3nncn3n2)CC1 | 6370 | 13.1 | 24.8 | 54.3 | < 0 | 22 |
| CCN1CCN(Cc2ccc(NC(=O)c3cc4ccc5cccnc5c4[nH]3)cc2)CC1 | 161 | 36.2 | 49.2 | 55.2 | < 0 | 31 |
| CN1c2ccccc2N(C)C1c1ccc2c(c1)OCO2 | 9760 | < 0 | < 0 | 18.3 | < 0 | 23 |
| O=C(NCC(c1ccsc1)N1CCCCCC1)c1ccc(C(F)(F)F)cc1 (stereo unspecified) | 3350 | 43.8 | 41.5 | 47.4 | 11 ± 19 | 0 |
| O=C(Nc1ccc(-c2nc3ccccc3[nH]2)cc1)c1ccc(Cl)c(Cl)c1 | 7300 | 6.82 | 10.1 | 44.2 | 7.15 ± 8.1 | 23 |
| Cc1cc(C=C2SC(=Nc3ccccc3)N(C3CCCC3)C2=O)c(C)n1-c1ccc(Cl)cc1 | 5270 | 17.8 | 26.2 | 37.9 | < 0 | 23 |
| COc1ccc2c(c1OC)C(=O)N1c3ccccc3N=C(c3ccc(C)cc3)CC21 (stereo unspecified) | 6080 | 20.9 | 71.5 | 80.7 | < 0 | 32 |
| CC(C)=CCN1CCC(C(=O)Nc2ccc(-c3nc4ccccc4[nH]3)cc2)CC1 | 464 | 18 | 45.8 | 59.4 | 19.7 ± 20 | 0 |
| COc1ccc(CN2CCN(Cc3ccccc3)CC2)c(O)c1 | 2170 | 13.1 | 19.6 | 40.3 | 11.2 ± 5.4 | 29 |
| CCn1c(CN2CCN(Cc3ccccc3)CC2)nc2cc(NC(=O)c3cccs3)ccc21 | 615 | 40.6 | 47.9 | 56 | < 0 | 0 |
| O=C(Nc1cccc(C2=NCCN2)c1)Nc1cccc(C2=NCCN2)c1 | 1840 | < 0 | 1.31 | 32.2 | 7.82 ± 3.2 | 38 |
| OC(CNC1CCCC1)Cn1c2ccccc2c2ccccc21 (stereo unspecified) | 723 | 22.3 | 40.1 | 63.4 | 15.9 ± 6.6 | 0 |
| CCCCc1c(C)nc2c(OC)cccc2c1O | 2640 | 41.9 | 45.3 | 49.4 | 9.6 ± 15 | 0 |
| COc1ccc(-n2ccnc2SCC(=O)Nc2cc(C)ccc2C)c(OC)c1 | 226 | 41.6 | 49.9 | 56.2 | < 0 | 31 |
| COc1ccccc1CNC(=O)C1c2ccccc2C(=O)N(CC(C)C)C1c1cccs1 (stereo unspecified) | 926 | 34.5 | 45 | 68.1 | < 0 | 24 |

| Compound | EC50 growth inhibition [1] [nM] | % inhibition of schizont-to-ring transition ([2]; 1 µM) [%] | % inhibition of schizont-to-ring transition ([2]; 3 µM) [%] | % inhibition of schizont-to-ring transition ([2]; 10 µM) [%] | % growth inhibition [3] [%] | plaque count per well [4] |
| --- | --- | --- | --- | --- | --- | --- |
| CCOc1cc(CNC(C)C(O)c2ccccc2)cc(Cl)c1OCC (stereo unspecified) | 1060 | 2 | 17.2 | 44.2 | 15 ± 24 | 0 |
| Cn1c(=O)c2cc(C(=O)NCCCN3CCCCCC3)sc2c2ccccc21 | 833 | 42.6 | 49.5 | 53.2 | 5.71 ± 9.9 | 25 |
| COc1ccc(-c2cc3c(SCC(=O)Nc4cc(C(F)(F)F)ccc4Cl)nccn3n2)cc1 | 259 | 35.7 | 37.5 | 49.5 | < 0 | 28 |
| COc1ccc2nc(C)cc(Nc3cccc(O)c3)c2c1 | 845 | 42.3 | 59.4 | 64 | 19.7 ± 6.3 | 0 |
| CCOc1ccc(N2C(N)=NC(N)=NC2(C)C)cc1 | 9760 | 5.22 | 7.7 | 16 | < 0 | 28 |
| Cc1ccc(F)cc1NC(=O)c1cc(Cl)ccc1Nc1ccccc1 | 1790 | 54.4 | 70.7 | 81.9 | < 0 | 26 |
| COc1ccc(OC)c(C2C3=C(CC(C)(C)CC3=O)N(c3ccc(Cl)c(Cl)c3)C3=C2C(=O)CC(C)(C)C3)c1 | 7740 | 16.9 | 20.7 | 50.7 | < 0 | 38 |
| Cc1ccc(-c2cc3nc4c(c(O)n3n2)CCCC4)cc1 | 4270 | 17.7 | 36.1 | 49.3 | < 0 | 0 |
| Cc1cccc(N2C(=O)C3C(C2=O)C2(c4ccccc4)C(=O)C3(c3ccccc3)C(c3ccc4c(c3)OCO4)=C2c2ccc3c(c2)OCO3)c1 (stereo unspecified) | 1020 | < 0 | < 0 | 17.3 | < 0 | 20 |
| CCCCc1c(CCC)c(=N)c2ccccc2n1C | 3930 | 7.81 | 11.2 | 39.6 | < 0 | 23 |
| COc1ccc(N2CCN(C(CNC(=O)C3CCCCC3)c3ccc4c(c3)OCO4)CC2)cc1 (stereo unspecified) | 6240 | 41.5 | 44.2 | 49.2 | < 0 | 23 |
| CCCN(CCC)CC(O)COc1ccccc1C(=O)Nc1ccccc1 (stereo unspecified) | 420 | 33 | 65.6 | 73.5 | < 0 | 25 |
| COc1ccccc1CNC(=O)CCn1c(=O)[nH]c2ccsc2c1=O | 6070 | 11.4 | 30.6 | 49.9 | < 0 | 22 |
| Clc1ccc2c(N3CCCC3)ccnc2c1 | 1280 | 43.1 | 53.3 | 69.9 | < 0 | 25 |
| Cc1cc(N2CCN(C3CCCC3)CC2)n2c(nc3ccccc32)c1C#N | 878 | 33.3 | 39.3 | 51.3 | < 0 | 30 |
